Assay results: US20050079529A1, “Very large scale immobilized polymer synthesis” (Affymetrix, INC., priority 1989, published 2005)
“Also recorded” adds a separate entry of the source.

System: antibody 3E7
Assay: Fluorescence scan of 50 μm YGGFL/PGGFL checkerboard array probed with antibody 3E7 and fluoresceinated goat anti-mouse antibody
Type: binding
Details: 2 μg/ml 3E7; 50 μm checkerboard
Protocol: FIG. 11 is a flow chart illustrating another example of the invention. Carboxy-activated NVOC-leucine was allowed to react with an aminated substrate. The carboxy activated HOBT ester of leucine and other amino acids used in this synthesis was formed by mixing 0.25 mmol of the NVOC amino protected amino acid with 37 mg HOBT (1-hydroxybenzotriazole), 111 mg BOP (benzotriazolyl-n-oxy-tris (dimethylamino)-phosphoniumhexa-fluorophosphate) and 86 μl DIEA (diisopropylethylamine) in 2.5 ml DMF. The NVOC protecting group was removed by uniform illumination. Carboxy-activated NVOC-phenylalanine was coupled to the exposed amino groups for 2 hours at room temperature, and then washed with DMF and methylene chloride. Two unmasked cycles of photodeprotection and coupling with carboxy-activated NVOC-glycine were carried out. The surface was then illuminated through a chrome on glass 50 μm checkerboard pattern mask. Carboxy-activated Na-tBOC-O-tButyl-L-tyrosine was then added. […]
The array of pentapeptides was probed with a mouse monoclonal antibody directed against β-endorphin. […] The surface was scanned with an epi-fluorescence microscope. […] The height of each spike in this display is linearly proportional to the integrated fluorescence intensity in a 2.5 μm pixel. […] There is little variation in the fluorescence intensity of different YGGFL squares. […]
For Pro-Gly-Gly-Phe-Leu (PGGFL), the “binding of antibody 3E7 to surface peptide” value was “does not bind”.

System: Herz antibody
Assay: YGGFL/GGFL checkerboard slide exposed to Herz antibody and goat anti-mouse fluorescein conjugate
Type: binding
Details: 500×500 μm mask
Protocol: A first antibody, known as the Herz antibody, was applied to the surface of the slide for 45 minutes at 2 μg/ml in a supercocktail (containing 1% BSA and 1% ovalbumin also in this case). A second antibody, goat anti-mouse fluorescein conjugate, was then added at 2 μg/ml in the supercocktail buffer, and allowed to incubate for 2 hours.
Monomer-by-monomer synthesis of YGGFL and GGFL in alternate squares was performed on a slide in a checkerboard pattern and the resulting slide was exposed to the Herz antibody. This experiment and the results thereof are illustrated in FIGS. 13A, 13B, 13C, and 13D.
In FIG. 13A, a slide is shown which is derivatized with t-BOC-aminopropyl-triethoxysilane. The slide was treated with TFA to remove the t-BOC protecting group. t-BOC-6-aminocaproic acid was then coupled onto the aminopropyl groups. The aminocaproic acid serves as a spacer between the aminopropyl group and the peptide to be synthesized. The amino end of the spacer was deprotected and coupled to NVOC-Leucine. The entire slide was then illuminated with 12 mW of 325 nm broadband illumination. The slide was then coupled with NVOC-Phenylalanine and washed. The entire slide was again illuminated, then coupled to NVOC-Glycine and washed. […]
The resulting fluorescence scan is shown in FIG. 13C, and the scale for the fluorescence intensity is again given on the right. […]
In the case of GGFL: tetrapeptide, SEQ ID NO:15, the “recognition by Herz antibody” value is reported as “not recognized”.

System: Herz antibody
Assay: 50 μm checkerboard of YGGFL and YPGGFL, antibody fluorescence plot
Type: binding, mouse
Details: not given
With YPGGFL: peptide, SEQ ID NO:3 the “recognition / binding by the antibody” value was “does not bind significantly”.

System: antibody 3E7
Assay: 10-step binary synthesis array of 1,024 peptides, fluorescence scan after antibody 3E7 and fluoresceinated antibody
Type: binding, mouse
Details: not given
Source text: The power of the binary masking strategy can be appreciated by the outcome of a 10-step synthesis that produced 1,024 peptides. The polynomial expression for this 10-step binary synthesis was: (f+Ø)(Y+Ø)(G+Ø)(A+Ø)(G+Ø)(T+Ø)(F+Ø)(L+Ø)(S+Ø)(F+Ø)
Each peptide occupied a 400×400 μm square. A 32×32 peptide array (1,024 peptides, including the null peptide and 10 peptides of l=1, and a limited number of duplicates) was clearly evident in a fluorescence scan following side group deprotection and treatment with the antibody 3E7 and fluoresceinated antibody. Each synthesis site was a 400×400 μm square.
(x=20, y=9). […] The median value of the array was 4,800 counts.
The identity of each peptide in the array could be determined from its x and y coordinates (each range from 0 to 31) and the map of FIG. 29. The chemical units at positions 2, 5, 6, 9, and 10 are specified by the y coordinate and those at positions 1, 3, 4, 7, 8 by the x coordinate. All but one of the peptides was shorter than 10 residues. For example, the peptide at x=12 and y=3 is YGAGF (SEQ ID NO:30; […]).
It is often desirable to deduce a binding affinity of a given peptide from the measured fluorescence intensity. Conceptually, the simplest case is one in which a single peptide binds to a univalent antibody molecule. The fluorescence scan is carried out after the slide is washed with buffer for a defined time. The order of fluorescence intensities is then a measure primarily of the relative dissociation rates of the antibody-peptide complexes. If the on-rate constants are the same (e.g., if they are diffusion-controlled), the order of fluorescence intensities will typically correspond to the order of binding affinities. However, the situation is sometimes more complex because a bivalent primary antibody and a bivalent secondary antibody are used. The density of peptides in a synthesis area corresponded to a mean separation of […], which would allow multivalent antibody-peptide interactions. […] For a more complete analysis of how the present invention can be extended to the binding affinity of an immobilized ligand to a receptor, see U.S. Ser. No. 07/796,947, filed Nov. 22, 1991, and incorporated herein by reference.
With YGGFS: SEQ ID NO:10 the “rank of fluorescence in the 1,024 peptide array” value (“rank of fluorescence” below) was “most highly fluorescent”.
In the case of YGAFSF: SEQ ID NO:16, the “rank of fluorescence” value is reported as “most highly fluorescent”.
In the case of YGGFLS: SEQ ID NO:7, the “rank of fluorescence” value is reported as “most highly fluorescent”.
With YGAL: SEQ ID NO:11 the “rank of fluorescence” value was “most highly fluorescent”.
For YGGLS: SEQ ID NO:14, the “rank of fluorescence” value was “most highly fluorescent”.
For YGAFLSF, the “rank of fluorescence” value was “most highly fluorescent”.
For YGAFS: SEQ ID NO:5, the “rank of fluorescence” value was “most highly fluorescent”.
For YGAFLF: SEQ ID NO:12, the “rank of fluorescence” value was “most highly fluorescent”.
With YGAFF: SEQ ID NO:13 the “rank of fluorescence” value was “most highly fluorescent”.
For YGAF: SEQ ID NO:8, the “rank of fluorescence” value was “most highly fluorescent”.
For YGAFLS: SEQ ID NO:4, the “rank of fluorescence” value was “brightest element of the array; also recorded: most highly fluorescent”.
In the case of YGAFL: SEQ ID NO:6, the “rank of fluorescence” value is reported as “most highly fluorescent”.
For YGALS: SEQ ID NO:9, the “rank of fluorescence” value was “most highly fluorescent”.

System: not listed separately
Assay: Photolysis of N-protected L-phenylalanine in solution
Type: physicochemical
Details: 5 mM H2SO4/Dioxane; 0.10 mM protected phenylalanine
Protocol: The photoremovable protecting groups of the present invention are readily removed. For example, the photolysis of N-protected L-phenylalanine in solution having different photoremovable protecting groups was analyzed, and the results are presented in the following table: […]
In the case of `CC(OC(=O)NC(Cc1ccccc1)C(=O)O)c1cc2c(cc1[N+](=O)[O-])OCO2` (stereo not shown) [MeNPOC], the “t1/2 in seconds, photolysis of protected L-Phe-OH” value (from here on “t1/2 in seconds, photolysis”) is reported as 22 s.
For `COc1cc(COC(=O)NC(Cc2ccccc2)C(=O)O)c([N+](=O)[O-])cc1OC` (stereo not shown) [NVOC, reference compound], the “t1/2 in seconds, photolysis” value was 98 s.
In the case of `O=C(NC(Cc1ccccc1)C(=O)O)OCc1ccccc1[N+](=O)[O-]` (stereo not shown) [NBOC, reference compound], the “t1/2 in seconds, photolysis” value is reported as 1575 s.

Same assay, conditions: Dioxane; 0.10 mM protected phenylalanine
For `CC(OC(=O)NC(Cc1ccccc1)C(=O)O)c1cc2c(cc1[N+](=O)[O-])OCO2` (stereo not shown) [MeNPOC], the “t1/2 in seconds, photolysis” value was 19 s.
With `COc1cc(COC(=O)NC(Cc2ccccc2)C(=O)O)c([N+](=O)[O-])cc1OC` (stereo not shown) [NVOC, reference compound] the “t1/2 in seconds, photolysis” value was 110 s.
In the case of `O=C(NC(Cc1ccccc1)C(=O)O)OCc1ccccc1[N+](=O)[O-]` (stereo not shown) [NBOC, reference compound], the “t1/2 in seconds, photolysis” value is reported as 1288 s.

System: antibody 3E7
Assay: not given
Details: known from Meo et al., Proc. Natl. Acad. Sci. USA (1983) 80:4084; cited from earlier work
For “YGGFM: SEQ ID NO:21, the immunogen used to obtain antibody 3E7”, the “affinity of binding by antibody 3E7” value is given as “nanomolar affinity”.

System: antibody 3E7
Assay: 10-step binary synthesis array of 1,024 peptides, fluorescence scan after antibody 3E7 and fluoresceinated antibody
Type: binding, mouse
Details: additional binary syntheses based on peptides on phage leads
With YGAFM: SEQ ID NO:19 the “fluorescence signal relative to YGGFM” value was “stronger fluorescence signals than does YGGFM”.
In the case of YGAFQ: SEQ ID NO:20, the “fluorescence signal relative to YGGFM” value is reported as “stronger fluorescence signals than does YGGFM”.
For YGAFMQ: SEQ ID NO:18, the “fluorescence signal relative to YGGFM” value was “stronger fluorescence signals than does YGGFM”.

System: anti-dynorphin B monoclonal antibody
Assay: Dynorphin B deletion peptide array, relative binding of anti-dynorphin B monoclonal antibody by fluorescence intensity
Details: mean ± spread over N synthesis sites
Protocol: The binding epitope on dynorphin B for the anti-dynorphin B antibody described above was determined by deleting various amino acids and combinations of amino acids from the overall sequence of dynorphin B. The peptides containing these various deletions were prepared on a substrate by the general protection-deprotection methods described above. Then the substrate was exposed to the anti-dynorphin B monoclonal antibody and a fluorescence image was produced as shown in FIG. 33.
From the intensity distribution contained in this plot, it was possible to determine the relative binding affinity to various of the peptides.
In the case of “R R Q F K V V T: deletion peptide from the dynorphin B sequence (RRQFKVVT)”, the “RELATIVE INTENSITY” value is reported as 98.8 ± 0.9.
With “Q F K V V T: deletion peptide from the dynorphin B sequence (QFKVVT)” the “RELATIVE INTENSITY” value was 36.2 ± 16.0.
For “L R R Q F K V V T: deletion peptide from the dynorphin B sequence (LRRQFKVVT)”, the “RELATIVE INTENSITY” value was 86.9 ± 13.7.
For “F L R R Q F K V: deletion peptide from the dynorphin B sequence (FLRRQFKV)”, the “RELATIVE INTENSITY” value was 13.7 ± 3.0.
With “F L R R Q F K V V T: deletion peptide from the dynorphin B sequence (FLRRQFKVVT)” the “RELATIVE INTENSITY” value was 84.2 ± 28.2.
For “K V V T: deletion peptide from the dynorphin B sequence, SEQ ID NO:36 (KVVT)”, the “RELATIVE INTENSITY” value was 10.7 ± 1.8.
In the case of “F L R R Q F: deletion peptide from the dynorphin B sequence (FLRRQF)”, the “RELATIVE INTENSITY” value is reported as 8.5 ± 3.4.
In the case of “F L R R Q F K: deletion peptide from the dynorphin B sequence (FLRRQFK)”, the “RELATIVE INTENSITY” value is reported as 10.2 ± 2.8.
For “F L R R Q F K V V: deletion peptide from the dynorphin B sequence (FLRRQFKVV)”, the “RELATIVE INTENSITY” value was 37.4 ± 14.6.

Same assay, conditions: second value in parentheses
For “F L R R Q F K V V T: deletion peptide from the dynorphin B sequence (FLRRQFKVVT)”, the “RELATIVE INTENSITY, value in parentheses (ADJUSTED)” value was “(98.3 ± 1.2)”.
For “F L R R Q F K V V: deletion peptide from the dynorphin B sequence (FLRRQFKVV)”, the “RELATIVE INTENSITY, value in parentheses (ADJUSTED)” value was “(30.5 ± 5.4)”.
